Laboratory results from patent US9493441B2, “Acyclic cyanoethylpyrazoles as janus kinase inhibitors” (Merck Sharp & Dohme Corp., priority 2011, dated 2016).
Where two headings read alike, the source gives them in different places.

How the values were obtained:
[1] = molecular target: JAK2 (Homo sapiens (Human), UniProt O60674); test: Jak biochemical HTRF assay, JAK2
[2] = molecular target: JAK1 (Homo sapiens (Human), UniProt P23458); test: Jak biochemical HTRF assay, JAK1
[3] = JAK2 IC50 (nM), recombinant GST-tagged catalytic domain, [ATP] […]
[4] = JAK1 IC50 (nM), recombinant GST-tagged catalytic domain, [ATP] 31.8 μM
[5] = read-out: JAK2 IC50, recombinant GST-tagged catalytic domain, [ATP] […]
[6] = read-out: JAK1 IC50, recombinant GST-tagged catalytic domain, [ATP] 31.8 μM

Chain of JAK1 (P23458 875-1153): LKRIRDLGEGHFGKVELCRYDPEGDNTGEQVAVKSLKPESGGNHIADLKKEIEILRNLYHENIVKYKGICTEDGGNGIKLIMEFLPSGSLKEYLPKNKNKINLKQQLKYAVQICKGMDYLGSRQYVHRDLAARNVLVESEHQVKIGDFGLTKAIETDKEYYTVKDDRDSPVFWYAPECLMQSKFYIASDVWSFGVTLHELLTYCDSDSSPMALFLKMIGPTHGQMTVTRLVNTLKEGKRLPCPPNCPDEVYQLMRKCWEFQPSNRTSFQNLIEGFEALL
Chain of JAK2 (O60674 849-1124): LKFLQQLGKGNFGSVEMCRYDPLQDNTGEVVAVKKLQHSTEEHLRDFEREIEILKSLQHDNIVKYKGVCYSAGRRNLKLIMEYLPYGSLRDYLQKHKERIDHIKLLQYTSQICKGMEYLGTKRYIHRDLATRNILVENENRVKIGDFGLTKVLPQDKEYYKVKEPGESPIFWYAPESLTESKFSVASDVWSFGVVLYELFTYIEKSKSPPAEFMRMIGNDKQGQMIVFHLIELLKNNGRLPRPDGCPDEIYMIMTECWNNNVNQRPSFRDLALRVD

Row | SMILES | IC50 [1, 3] | IC50 [2, 4] | IC50 [1, 5] | IC50 [2, 6]
1 | CC(C)COC(=O)N1CCC([C@H](CC#N)n2cc(C(N)=O)c(Nc3ccc(F)cc3)n2)CC1 (single isomer, unassigned) [Example 12-3, 2-methylpropyl 4-[(1S or 1R)-1-{4-carbamoyl-3-[(4-fluorophenyl)amino]-1H-pyrazol-1-yl}-2-cyanoethyl]piperidine-1-carboxylate] | 1500 nM | 245 nM |  | 
2 | CC(C)(C)OC(=O)N1CCC(C(CC#N)n2cc(C(N)=O)c(Nc3ccccc3)n2)CC1 (single isomer, unassigned) [Example 15-1, tert-Butyl 4-{(1S or 1R)-1-[4-carbamoyl-3-(phenylamino)-1H-pyrazol-1-yl]-2-cyanoethyl}piperidine-1-carboxylate] |  |  | 601 nM | 13 nM
3 | COC(=O)N1CCC(C(CC#N)n2cc(C(N)=O)c(Nc3ccc(F)cc3)n2)CC1 (stereo not shown) [Example 11-2, methyl 4-(1-{4-carbamoyl-3-[(4-fluorophenyl)amino]-1H-pyrazol-1-yl}-2-cyanoethyl)piperidine-1-carboxylate] | 890 nM | 55 nM |  | 
4 | CN(C)CCOC(=O)N1CCC([C@H](CC#N)n2cc(C(N)=O)c(Nc3ccc(F)cc3)n2)CC1 (stereo in doubt) [Example 11-1, 2-(Dimethylamino)ethyl 4-(1-{4-carbamoyl-3-[(4-fluorophenyl)amino]-1H-pyrazol-1-yl}-2-cyanoethyl)piperidine-1-carboxylate] | 1500 nM | 959 nM |  | 
5 | CC(C)C(CC#N)n1cc(C(N)=O)c(Nc2ccccc2)n1 (stereo not shown) [Example 1-11, 1-[1-(cyanomethyl)-2-methylpropyl]-3-(phenylamino)-1H-pyrazole-4-carboxamide] | 641 nM | 64 nM |  | 
6 | N#CC[C@@H](C1CCN(C(=O)OCc2ccccc2)CC1)n1cc(C(N)=O)c(Nc2ccc(F)cc2)n1 (single isomer, unassigned) [Example 12-6, benzyl 4-[(1S or 1R)-1-{4-carbamoyl-3-[(4-fluorophenyl)amino]-1H-pyrazol-1-yl}-2-cyanoethyl]piperidine-1-carboxylate] | 1500 nM | 190 nM |  | 
7 | N#CC[C@@H](C1CCN(C(=O)OCC2CC2)CC1)n1cc(C(N)=O)c(Nc2ccc(F)cc2)n1 [Example 11-10, cyclopropylmethyl 4-[(1S)-1-{4-carbamoyl-3-[(4-fluorophenyl)amino]-1H-pyrazol-1-yl}-2-cyanoethyl]piperidine-1-carboxylate] | 1160 nM | 44 nM |  | 
8 | N#CCC(C1CCCOC1)n1cc(C(N)=O)c(Nc2ccccc2)n1 (stereo not shown) [Example 1-15, 1-[2-cyano-1-(tetrahydro-2H-pyran-3-yl)ethyl]-3-(phenylamino)-1H-pyrazole-4-carboxamide] | 1480 nM | 501 nM |  | 
9 | CC(C)(C)CC(CC#N)n1cc(C(N)=O)c(Nc2ccccc2)n1 (stereo not shown) [Example 1-13] | 1480 nM | 598 nM |  | 
10 | CC(C)(C)OC(=O)N1CCC(F)(C(CC#N)n2cc(C(N)=O)c(Nc3ccccc3)n2)CC1 (stereo not shown) [Example 3-2, tert-butyl 4-{1-[4-carbamoyl-3-(phenylamino)-1H-pyrazol-1-yl]-2-cyanoethyl}-4-fluoropiperidine-1-carboxylate] | 1500 nM | 99 nM |  | 
11 | CC(C)(C)OC(=O)N1CCC(C(CC#N)n2cc(C(N)=O)c(Nc3ccccc3)n2)CC1 (stereo not shown) [Example 1-2, tert-butyl 4-{1-[4-carbamoyl-3-(phenylamino)-1H-pyrazol-1-yl]-2-cyanoethyl}piperidine-1-carboxylate] | 228 nM | 7 nM |  | 
12 | N#CCC(C1CC1)n1cc(C(N)=O)c(Nc2ccccc2F)n1 (stereo not shown) [Example 6-2, 1-(2-cyano-1-cyclopropylethyl)-3-[(2-fluorophenyl)amino]-1H-pyrazole-4-carboxamide] |  |  | 1480 nM | 360 nM

The next lines start with results.

Row | IC50 [1, 3] | IC50 [2, 4] | SMILES | IC50 [1, 5] | IC50 [2, 6]
13 | 31 nM | 9 nM | N#CCC(C1CCCC1)n1cc(C(N)=O)c(Nc2ccc(C(=O)N3CCS(=O)(=O)CC3)cc2)n1 (stereo not shown) [Example 1-5, 1-(2-cyano-1-cyclopentylethyl)-3-({4-[(1,1-dioxidothiomorpholin-4-yl)carbonyl]phenyl}amino)-1H-pyrazole-4-carboxamide] |  | 
14 | 198 nM | 32 nM | C[C@H](C#N)[C@H](C)n1cc(C(N)=O)c(Nc2ccccc2)n1 (mixture of isomers) [Example 1-22, 1-((2S, 3S and 2R, 2R)-3-cyclobutan-2-yl)-3-(phenylamino)-1H-pyrazole-4-carboxamide] |  | 
15 | 103 nM | 12 nM | CC(C)(CC#N)n1cc(C(N)=O)c(Nc2ccccc2)n1 [Example 1-21, 1-(2-cyano-1,1-dimethylethyl)-3-(phenylamino)-1H-pyrazole-4-carboxamide] |  | 
16 | 74 nM | 19 nM | CCC(CC#N)n1cc(C(N)=O)c(Nc2ccc(C(=O)N3CCS(=O)(=O)CC3)cc2)n1 (stereo not shown) [Example 1-17, 1-[1-{cyanomethyl)propyl]-3-({4-[(1,1-dioxidothiomorpholin-4-yl)carbonyl]phenyl}amino)-1H-pyrazole-4-carboxamide] |  | 
17 | 87 nM | 24 nM | N#CCC(C1CC1)n1cc(C(N)=O)c(Nc2ccc3c(c2)OCCO3)n1 (stereo not shown) [Example 4-20, 1-(2-cyano-1-cyclopropylethyl)-3-(2,3-dihydro-1,4-benzodioxin-6-ylamino)-1H-pyrazole-4-carboxamide] |  | 
18 | 417 nM | 61 nM | CC(CC#N)n1cc(C(N)=O)c(Nc2ccccc2)n1 (stereo not shown) [Example 1-6, 1-(2-cyano-1-methylethyl)-3-(phenylamino)-1H-pyrazole-4-carboxamide] |  | 
19 | 474 nM | 69 nM | N#CCC(C1CCCC1)n1cc(C(N)=O)c(Nc2ccccc2)n1 (stereo not shown) [Example 1-20, 1-(2-cyano-1-cyclopentylethyl)-3-(phenylamino)-1H-pyrazole-4-carboxamide] |  | 
20 | 115 nM | 47 nM | CC(C)(O)COCc1cccc(Nc2nn(C(CC#N)C3CC3)cc2C(N)=O)c1 (stereo not shown) [Example 6-1, 1-(2-Cyano-1-cyclopropylethyl)-3-({3-[(2-hydroxy-2-methylpropoxy)methyl]phenyl}amino)-1H-pyrazole-4-carboxamide] |  | 
21 | 567 nM | 141 nM | N#CCC(C1CCCC1)n1cc(C(N)=O)c(Nc2ccccc2)n1 (single isomer, unassigned) [Example 16-4, 1-[(1S or 1R)-2-cyano-1-cyclopentylethyl]-3-(phenylamino)-1H-pyrazole-4-carboxamide] |  | 
22 | 66 nM | 9 nM | N#CCC(C1CC1)n1cc(C(N)=O)c(Nc2ccc(F)cc2)n1 (stereo not drawn) [Example 4-11, l-(2-cyano-1-cyclopropylethyl)-3-[(4-fluorophenyl)amino]-1H-pyrazole-4-carboxamide] |  | 
23 | 16 nM | 2 nM | N#CC[C@H](C1CC1)n1cc(C(N)=O)c(Nc2ccnc(F)c2)n1 (single isomer, unassigned) [Example 17-4, 1-[(1R or 1S)-2-cyano-1-cyclopropylethyl]-3-[(2-fluoropyridin-4-yl)amino]-1H-pyrazole-4-carboxamide] |  | 
24 | 413 nM | 123 nM | C[C@@H](C#N)[C@H](C)n1cc(C(N)=O)c(Nc2ccccc2)n1 (mixture of isomers) [Example 1-23, 1-((2S, 3R and 2R, 3S)-3-cyclobutan-2-yl)-3-(phenylamino)-1H-pyrazole-4-carboxamide] |  | 
25 | 339 nM | 124 nM | N#CCC(n1cc(C(N)=O)c(Nc2ccccc2)n1)C(F)(F)F (stereo not shown) [Example 2, 1-(3-Cyano-1,1,1-trifluoropropan-2-yl)-3-(phenylamino)-1H-pyrazole-4-carboxamide] |  | 
26 | 76 nM | 33 nM | N#CCC(C1CC1)n1cc(C(N)=O)c(Nc2cccnc2)n1 (stereo not shown) [Example 4-6, 1-(2-cyano-1-cyclopropylethyl)-3 - (pyridin-3-ylamino)-1H-pyrazole-4-carboxamide] |  | 
27 | 45 nM | 8 nM | CC(=O)Nc1ccc(Nc2nn(C(CC#N)C3CC3)cc2C(N)=O)cc1 (stereo not shown) [Example 4-21, 3-{[4-(acetylamino)phenyl]amino}-1-(2-cyano-1-cyclopropylethyl)-1H-pyrazole-4-carboxamide] |  | 
28 | 425 nM | 131 nM | N#CCC(C1CC1)n1cc(C(N)=O)c(Nc2cncc(C#N)c2)n1 (stereo not shown) [Example 4-18, 1-(2-cyano-1-cyclopropylethyl)-3-[(5-cyanopyridin-3-yl)amino]-1H-pyrazole-4-carboxamide] |  | 
29 | 524 nM | 59 nM | CC(C#N)Cn1cc(C(N)=O)c(Nc2ccc(F)cc2)n1 (stereo not shown) [Example 9, 1-(2-Cyanopropyl)-3-[(4-fluorophenyl)amino]-1H-pyrazole-4-carboxamide] |  | 
